# Results from patent publication US20020137929A1, “1 - (3-heterocyclylphenyl) isothiourea, -isourea, -guanidine and -amidine herbicidal agents” (Intellectual Property Department, BASF Aktiengesellschaft, priority 1998, published 2002).
# Key:
# [1] = test system: AMBEL (Ragweed, Common); experiment: Postemergence herbicidal evaluation; assay type: in vivo, Ambrosia artemisifolia; details: postemergence
# Procedure, shortened: (§1)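 Two-week seedlings sprayed postemergence at 40 psi; formulation: 1:1 acetone/water, 0.5% TWEEN 20; application ≈0.0156–0.500 kg/ha. Greenhouse grow-out, then 0–9 visual scoring at 4–5 weeks.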
# [2] = test system: CASOB (Sicklepod); experiment: Postemergence herbicidal evaluation; assay type: in vivo, Cassia obtusifolia; details: postemergence
# Procedure, shortened: as §1
# [3] = test system: CHEAL (Lambsquarters, Common); experiment: Postemergence herbicidal evaluation; assay type: in vivo, Chenopodium album; details: postemergence
# Procedure, shortened: as §1
# [4] = test system: GALAP (Galium); experiment: Postemergence herbicidal evaluation; assay type: in vivo, Galium aparine; details: postemergence
# Procedure, shortened: as §1
# [5] = test system: ECHCG (Barnyardgrass); experiment: Postemergence herbicidal evaluation; assay type: in vivo, Echinochloa crus-galli; details: postemergence
# Procedure, shortened: as §1
# [6] = test system: SETVI (Foxtail, Green); experiment: Postemergence herbicidal evaluation; assay type: in vivo, Setaria viridis; details: postemergence
# Procedure, shortened: as §1
# [7] = test system: GLXMAW (Soybean, Williams); experiment: Postemergence herbicidal evaluation; assay type: in vivo, Glycine max, (L.) Merr. cv Williams; details: postemergence
# Procedure, shortened: as §1
# [8] = test system: ORYSAT (Rice, Tebonnet); experiment: Postemergence herbicidal evaluation; assay type: in vivo, Oryza sativa, (L.) Tebonnet; details: postemergence
# Procedure, shortened: as §1
# [9] = test system: CASOB (Sicklepod); experiment: Preemergence herbicidal evaluation; assay type: in vivo, Cassia obtusifolia; details: rated 4-5 weeks after treatment
# Procedure, shortened: (§2)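 Herbicidal effect scored visually, 0-9, at 4 to 5 weeks against a control; compound applied preemergence by aqueous acetone spray to seeded soil at about 0.0156 to 0.500 kg/ha.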
# [10] = test system: GALAP (Galium); experiment: Preemergence herbicidal evaluation; assay type: in vivo, Galium aparine; details: rated 4-5 weeks after treatment
# Procedure, shortened: as §2
# [11] = test system: ZEAMX (Corn, Field); experiment: Preemergence herbicidal evaluation; assay type: in vivo, Zea mays; details: rated 4-5 weeks after treatment
# Procedure, shortened: as §2
# [12] = test system: CYPIR (Rice Flatsedge); experiment: Preemergence weed control under flooded paddy conditions; assay type: in vivo, Cyperus iria; details: rated 3-4 weeks after treatment
# Procedure, shortened: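 First, seeds or propagules go into the top 0.5 cm of silt loam; next, water is held 1.5 to 3 cm over the soil; then compound (50/50 acetone/water) is pipetted into it at about 0.0313 to 0.500 kg/ha; finally plants are rated visually 0-9 after three to four weeks.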
# [13] = test system: CYPSE (Flatsedge); experiment: as above; assay type: in vivo, Cyperus serotinus; details: rated 3-4 weeks after treatment
# Procedure, shortened: (§3)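 Values are visual 0-9 scores against a control for a preemergence application into paddy flood water at about 0.0313 to 0.500 kg/ha. Greenhouse duration was three to four weeks.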
# [14] = test system: SAGPY (Arrowhead (Pygmaea)); experiment: as above; assay type: in vivo, Sagittaria pygmaea; details: rated 3-4 weeks after treatment
# Procedure, shortened: as §3
# [15] = test system: CYPSE (Flatsedge); experiment: Postemergence weed control under flooded paddy conditions; assay type: in vivo, Cyperus serotinus; details: postemergence weeds, 3-4 weeks after treatment
# Procedure, shortened: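 Flood-water application, about 0.0313–0.500 kg/ha a.i. in aqueous/acetone 50/50 v/v; water depth 1.5–3 cm throughout. Weeds 3–5 cm, rice 1.5–2.5 leaf. Greenhouse; 0–9 visual rating vs control at 3–4 wk.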
structure (smiles),measurement,setting,value
"CCOC(=O)CN1C(=O)C(=Cc2ccccc2)SC1=Nc1cc(-n2c(=O)cc(C(F)(F)F)n(C)c2=O)c(F)cc1Cl [Compound 19, Ethyl 5-benzylidene-2-{{2-chloro-5-[3,6-dihydro-3-methyl-2,6-dioxo-4-(trifluoromethyl)-1(2H)-pyrimidinyl]-4-fluorophenyl}imino}-4-oxo-3-thiazolidineacetate]",AMBEL herbicidal rating,[1]; rate 0.0158 kg/ha,3.0
same,AMBEL herbicidal rating,[1]; rate 0.0315 kg/ha,3.0
same,AMBEL herbicidal rating,[1]; rate 0.0630 kg/ha,7.0
same,CASOB herbicidal rating,[2]; rate 0.0158 kg/ha,0.0
same,CASOB herbicidal rating,[2]; rate 0.0315 kg/ha,1.0
same,CASOB herbicidal rating,[2]; rate 0.0630 kg/ha,1.0
same,CHEAL herbicidal rating,[3]; rate 0.0158 kg/ha,3.0
same,CHEAL herbicidal rating,[3]; rate 0.0315 kg/ha,7.0
same,CHEAL herbicidal rating,[3]; rate 0.0630 kg/ha,9.0
same,GALAP herbicidal rating,[4]; rate 0.0158 kg/ha,2.0
same,GALAP herbicidal rating,[4]; rate 0.0315 kg/ha,3.0
same,GALAP herbicidal rating,[4]; rate 0.0630 kg/ha,3.0
same,ECHCG herbicidal rating,[5]; rate 0.0158 kg/ha,1.0
same,ECHCG herbicidal rating,[5]; rate 0.0315 kg/ha,2.0
same,ECHCG herbicidal rating,[5]; rate 0.0630 kg/ha,2.0
same,SETVI herbicidal rating,[6]; rate 0.0158 kg/ha,1.0
same,SETVI herbicidal rating,[6]; rate 0.0315 kg/ha,2.0
same,SETVI herbicidal rating,[6]; rate 0.0630 kg/ha,2.0
same,GLXMAW herbicidal rating,[7]; rate 0.0158 kg/ha,3.0
same,GLXMAW herbicidal rating,[7]; rate 0.0315 kg/ha,4.5
same,GLXMAW herbicidal rating,[7]; rate 0.0630 kg/ha,4.5
same,ORYSAT herbicidal rating,[8]; rate 0.0158 kg/ha,1.5
same,ORYSAT herbicidal rating,[8]; rate 0.0315 kg/ha,2.0
same,ORYSAT herbicidal rating,[8]; rate 0.0630 kg/ha,2.5
same,CASOB preemergence herbicidal rating,[9]; rate 0.1250 kg/ha,0.0
same,CASOB preemergence herbicidal rating,[9]; rate 0.2500 kg/ha,0.0
same,GALAP preemergence herbicidal rating,[10]; rate 0.1250 kg/ha,0.0
same,GALAP preemergence herbicidal rating,[10]; rate 0.2500 kg/ha,0.0
same,ZEAMX preemergence herbicidal rating,[11]; rate 0.1250 kg/ha,0.0
same,ZEAMX preemergence herbicidal rating,[11]; rate 0.2500 kg/ha,0.0
same,Herbicidal rating CYPIR,[12]; 0.1160 kg/ha,0.0
same,Herbicidal rating CYPIR,[12]; 0.2310 kg/ha,0.0
same,Herbicidal rating CYPIR,[12]; 0.4630 kg/ha,0.0
same,Herbicidal rating CYPSE,[13]; 0.1160 kg/ha,4.0
same,Herbicidal rating CYPSE,[13]; 0.2310 kg/ha,4.0
same,Herbicidal rating CYPSE,[13]; 0.4630 kg/ha,4.0
same,Herbicidal rating SAGPY,[14]; 0.1160 kg/ha,0.0
same,Herbicidal rating SAGPY,[14]; 0.2310 kg/ha,3.0
same,Herbicidal rating SAGPY,[14]; 0.4630 kg/ha,3.0
same,Herbicidal rating CYPSE,[15]; rate 0.1160 kg/ha,4.0
same,Herbicidal rating CYPSE,[15]; rate 0.2310 kg/ha,4.0
same,Herbicidal rating CYPSE,[15]; rate 0.4630 kg/ha,4.0
